The values below come from patent US20170198359A1, “METHODS AND COMPOSITIONS FOR TREATMENT OR DIAGNOSIS OF CANCERS RELATED TO GABRA3” (The Wistar Institute of Anatomy and Biology, priority 2016, published 2017).

Entries after “also recorded” stand apart in the source; their conditions may differ.

In assay [1] the test system is MDA-MB-436 cells. Briefly: Boyden chamber migration assay, MDA-MB-436 cells with GABRA3 inhibitors. It counts as cell-based, human. The conditions noted are these: various concentrations (10 nM-10 μM), FIG. 12. Here is the method:
(§1) MDA-MB-436 cells were treated with GABRA3 inhibitors picrotoxin or flumazenil at various concentrations (10 nM-10 μM). Cells were then subjected to Boyden chamber assays (see, e.g., Ostrander et al, Cancer Res May 1, 2007 67; 4199, which is incorporated herein by reference).

The test system of assay [2] is MDA-MB-436 cells. Briefly: Boyden chamber invasion assay, MDA-MB-436 cells with GABRA3 inhibitors. It counts as cell-based, human. To be noted: various concentrations (10 nM-10 μM), FIG. 12. As for the experimental part: as §1
Assay [3] relates to melanoma. To be noted: melanoma treatment, clinical trials; cited from earlier work.
In assay [4] the test system is MCF7 cells stably expressing GABRA3. In words: Transwell migration assay, MCF7-GABRA3 cells with AKT inhibitor. Format: cell-based, human. To be noted: different concentrations of the inhibitor vs control DMSO, FIG. 11A. Here is the method: (§2) In vitro cell migration assays were performed as described previously (21, 22) using Trans-well chambers ([…] pore size; Costar). Cells were allowed to grow to subconfluency (˜75-80%) and were serum-starved for 24 h. After detachment with trypsin, cells were washed with PBS, resuspended in serum-free medium and 250 μl cell suspensions (2×10^5 cells ml−1) was added to the upper chamber. Complete medium was added to the bottom wells of the chambers. The cells that had not migrated were removed from the upper face of the filters using cotton swabs, and the cells that had migrated to the lower face of the filters were fixed with 5% glutaraldehyde solution and stained with 0.5% solution of Toluidine Blue in 2% sodium carbonate. Images of three random ×10 fields were captured from each membrane and the number of migratory cells was counted. […]
(§3) It has previously been shown that A-to-I edited GABRA3 affected the intracellular trafficking of GABRA3 (18), which is critical for the localization of GABRA3 on cell membrane. We determined the expression of GABRA3 on cell surface of breast cancer cells using FACS analysis. […] Since AKT pathway is critical in both breast cancer metastasis and therapy resistance (27-29), we determined the effect of GABRA3 on AKT activation and whether AKT pathway mediates GABRA3 functions in migration and invasion. […]

Assay [5] has the same test system. In words: Matrigel invasion assay, MCF7-GABRA3 cells with AKT inhibitor. Format: cell-based, human. To be noted: different concentrations of the inhibitor vs control DMSO, FIG. 11B. As for the experimental part:
as §2, §3

Turning to `CCOC(=O)c1ncn2c1CN(C)C(=O)c1cc(F)ccc1-2` [flumazenil], in assay [1], the cell migration result is “suppress”. Further, the cell invasion entry in assay [2] is “suppress”. `Nc1nc2ccc(OC(F)(F)F)cc2s1` [Riluzole]: the anti-tumor activity entry in assay [3] is “significant anti-tumor activity”. Consider `NC1(c2ccc(-c3nc4ccn5c(=O)[nH]nc5c4cc3-c3ccccc3)cc2)CCC1` [MK-2206], for which the cell migration result in assay [4] was “inhibited cell migration and invasion in a dose-dependent manner; also recorded: suppressed”. For the same molecule, the cell invasion result in assay [5] is “inhibited cell migration and invasion in a dose-dependent manner; also recorded: suppressed”. For picrotoxin, in assay [1], the cell migration result is recorded as “suppress”. Besides, the cell invasion entry in assay [2] is given as “suppress”.
